Toxic doses and inconclusive results are not listed.
System: L1210 leukemia ip in BDF1 mice, survival T/C
Test: NCI In Vivo Anticancer Drug Screen. Data for tumor model L1210 Leukemia (intraperitoneal) in B6D2F1 (BDF1) mice
Conditions: endpoint: mean survival time, higher = longer survival
Outline: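 Each compound was tested against a transplantable tumor grown in mice. The endpoint was survival, with treated animals benchmarked against vehicle controls as a simple ratio.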

[1] = dose: 100.0 mg/kg/injection, schedule: Q04DX003 (ip), vehicle: saline with Tween-80
[2] = dose: 200.0 mg/kg/injection, schedule: Q04DX003 (ip), vehicle: saline with Tween-80
[3] = dose: 100.0 mg/kg/injection, schedule: Q01DX009 (ip), vehicle: Klucel (hydroxypropylcellulose) (HPC)
[4] = dose: 200.0 mg/kg/injection, schedule: Q01DX009 (ip), vehicle: Klucel (hydroxypropylcellulose) (HPC)
[5] = dose: 400.0 mg/kg/injection, schedule: Q01DX009 (ip), vehicle: Klucel (hydroxypropylcellulose) (HPC)

CC1=NCCc2c1cc1c([nH]c3ccccc31)c2C
T/C (dose: 14.0 mg/kg/injection, schedule: Q01DX Z (ip), vehicle: carboxymethylcellulose (CMC)): 106 % of control
T/C (dose: 28.0 mg/kg/injection, schedule: Q01DX Z (ip), vehicle: carboxymethylcellulose (CMC)): 107 % of control
T/C (dose: 44.0 mg/kg/injection, schedule: Q01DX009 (ip), vehicle: other): 121 % of control
T/C (dose: 44.0 mg/kg/injection, schedule: Q01DX009 (ip), vehicle: saline with Tween-80): 115 % of control
T/C (dose: 50.0 mg/kg/injection, schedule: Q01DX009 (ip), vehicle: saline with Tween-80): 101 % of control
T/C (dose: 56.0 mg/kg/injection, schedule: Q01DX Z (ip), vehicle: carboxymethylcellulose (CMC)): 113 % of control
T/C (dose: 100.0 mg/kg/injection, schedule: Q01DX009 (ip), vehicle: other): 151 % of control
T/C (dose: 100.0 mg/kg/injection, schedule: Q01DX009 (ip), vehicle: saline with Tween-80): 151 % of control
T/C (dose: 100.0 mg/kg/injection, schedule: Q04DX003 (ip), vehicle: acetone): 110 % of control
T/C [1]: 110 % of control
T/C (dose: 112.0 mg/kg/injection, schedule: Q01DX Z (ip), vehicle: carboxymethylcellulose (CMC)): 123 % of control
T/C (dose: 150.0 mg/kg/injection, schedule: Q01DX009 (ip), vehicle: saline with Tween-80): 178 % of control
T/C (dose: 177.0 mg/kg/injection, schedule: Q04DX003 (ip), vehicle: saline with Tween-80): 122 % of control
T/C (dose: 200.0 mg/kg/injection, schedule: Q01DX009 (ip), vehicle: saline with Tween-80): 101 % of control
T/C (dose: 200.0 mg/kg/injection, schedule: Q04DX003 (ip), vehicle: acetone): 102 % of control
T/C [2]: 115 % of control
T/C (dose: 210.0 mg/kg/injection, schedule: Q01DX009 (ip), vehicle: other): 98 % of control
T/C (dose: 266.0 mg/kg/injection, schedule: Q04DX003 (ip), vehicle: saline with Tween-80): 124 % of control

Cc1cc(O)c(C=O)c(C)c1O
T/C [3]: 110 % of control
T/C [4]: 117 % of control

CCOC(=O)C(C)Oc1ccc([N+](=O)[O-])cc1Cl (centres undefined)
T/C (dose: 100.0 mg/kg/injection, schedule: Q01DX009 (ip), vehicle: gum acacia): 94 % of control
T/C (dose: 200.0 mg/kg/injection, schedule: Q01DX009 (ip), vehicle: gum acacia): 99 % of control
T/C (dose: 400.0 mg/kg/injection, schedule: Q01DX009 (ip), vehicle: gum acacia): 99 % of control

O=C(Nc1ccccn1)NC1CCCCC1
T/C [3]: 98 % of control
T/C [4]: 105 % of control
T/C [5]: 98 % of control

O=C(Nc1cccc([N+](=O)[O-])c1)c1ccc(Cl)c(Cl)c1
T/C (dose: 25.0 mg/kg/injection, schedule: Q04DX003 (ip), vehicle: saline with Tween-80): 115 % of control
T/C (dose: 50.0 mg/kg/injection, schedule: Q04DX003 (ip), vehicle: saline with Tween-80): 96 % of control
T/C [1]: 99 % of control
T/C [2]: 86 % of control
T/C (dose: 300.0 mg/kg/injection, schedule: Q04DX003 (ip), vehicle: saline with Tween-80): 86 % of control

COc1ccc(CC(=S)N2CCOCC2)cc1
T/C [3]: 104 % of control
T/C (dose: 100.0 mg/kg/injection, schedule: Q04DX002 (ip), vehicle: Klucel (hydroxypropylcellulose) (HPC)): 98 % of control
T/C [4]: 102 % of control
T/C (dose: 200.0 mg/kg/injection, schedule: Q04DX002 (ip), vehicle: Klucel (hydroxypropylcellulose) (HPC)): 95 % of control
T/C [5]: 96 % of control

CCCCCC(=O)N(CC)C(=NCC)c1ccc(NC(=O)c2ccc(C(=O)Nc3ccc(C(=NCC)N(CC)C(=O)CCCCC)cc3)cc2)cc1
T/C (dose: 3.12 mg/kg/injection, schedule: Q01DX015 (ip), vehicle: methylcellulose (MC)): 100 % of control
T/C (dose: 6.25 mg/kg/injection, schedule: Q01DX015 (ip), vehicle: methylcellulose (MC)): 102 % of control
T/C (dose: 12.5 mg/kg/injection, schedule: Q01DX015 (ip), vehicle: methylcellulose (MC)): 94 % of control
T/C (dose: 25.0 mg/kg/injection, schedule: Q01DX015 (ip), vehicle: methylcellulose (MC)): 88 % of control
T/C (dose: 50.0 mg/kg/injection, schedule: Q01DX015 (ip), vehicle: methylcellulose (MC)): 100 % of control
T/C (dose: 100.0 mg/kg/injection, schedule: Q01DX015 (ip), vehicle: methylcellulose (MC)): 100 % of control
T/C (dose: 200.0 mg/kg/injection, schedule: Q01DX015 (ip), vehicle: methylcellulose (MC)): 90 % of control
T/C (dose: 400.0 mg/kg/injection, schedule: Q01DX015 (ip), vehicle: methylcellulose (MC)): 90 % of control

From PubChem BioAssay AID248 (DTP/NCI, 2004)
